Results taken from patent publication US20120157477A1, “REVERSAL OF L-DOPA-INDUCED DYSKINESIA BY NEURONAL NICOTINIC RECEPTOR LIGANDS” (TARGACEPT, INC., priority 2009, published 2012).
Entries after “also recorded” stand apart in the source; their conditions may differ.

How the values were obtained:
[1] = system: Parkinsonian nonhuman primates; conditions: cited from earlier work
Parkinsonian rodents = conditions: cited from earlier work
[2] = system: L-dopa-treated unilateral 6-hydroxydopamine-lesioned rats; experiment: L-dopa-induced AIMs (dyskinesia) in unilateral 6-OHDA-lesioned rats; format: in vivo, rat
Experimental: The subtype selective NNR agonist Compound A, stimulates […] and to a lesser extent α6* NNRs. […] Experiments were performed using male Sprague-Dawley rats that were unilaterally lesioned with 6-OHDA (Sigma Chemical Co., St. Louis, Mo.) as previously described (Cenci et al., 1998; Cenci et al., 2002). 6-OHDA was dissolved in 0.02% ascorbic acid/saline at a concentration of 3 μg/μl. Compound A was systemically infused via osmotic minipumps (Alzet model 2006; Durect Corporation, Cupertino, Calif., USA), which delivered drug at a rate of 3.6 μl/day for 6 wk. […] Pumps were pre-filled with either sterilized water or Compound A base in water (pH 7.0) to provide the required doses (0.03, 0.1, 0.3 mg/kg/d). The minipumps were subcutaneously implanted along the dorsal aspect of the neck between the shoulder blades, according to the manufacturer's instruction, under isofluorane anesthesia. After implantation, rats were administered buprenorphine (0.02 mg/kg sc) for post-operative pain. Two weeks after initiation of drug treatment, the rats were administered single daily subcutaneous injections of 6 to 8 mg/kg L-dopa methyl ester plus 15 mg/kg benserazide. Two μl aliquots were stereotaxically injected at each of two sites for a total of 8 to 12 μg into the right ascending dopamine fiber bundle. Infusion of 6-OHDA into the target area was over a 2-min period, with the cannula maintained at the site of injection for a further 2 min. Two to three weeks after lesioning, rats were tested for drug-induced rotational behavior in an automated behavioral measurement apparatus (ROTOMAX, AccuScan Instruments Inc. Columbus, Ohio, USA). Each rat was placed in a cylindrical glass chamber for 30 min for acclimatization, after which 4.0 mg/kg amphetamine (Sigma Chemical Co., St. Louis, Mo.) was administered intraperitoneally (ip). Amphetamine-induced rotational behavior was monitored for 90 min, with rats making at least 200 ipsilateral turns/90 min used for further study.
L-dopa-induced AIMs were determined as indicated. See FIG. 1 for experiment dosing and testing regimen. Behavioral testing was done in the morning starting between 9 and 10 AM. Three different AIMs subtypes were measured including (1) axial dystonia, contralateral twisted posturing of the neck and upper body; (2) abnormal orolingual movements, stereotyped jaw movements and contralateral tongue protrusion; and (3) abnormal forelimb movements, repetitive rhythmic jerks or dystonic posturing of the contralateral forelimb and/or grabbing movements of the contralateral paw. See, for example, Carta M, Lindgren HS, Lundblad M, Stancampiano R, Fadda F, Cenci M A (2006), Role of Striatal L-DOPA in the Production of Dyskinesia in 6-hydroxydopamine Lesioned Rats. J Neurochem 96:1718-172; Cenci M A, Lee C S, Bjorklund A (1998) L-DOPA-induced dyskinesia in the rat is associated with striatal overexpression of prodynorphin- and glutamic acid decarboxylase mRNA; Eur J Neurosci 10:2694-2706; Cenci M A, Whishaw I Q, Schallert T (2002) Animal models of neurological deficits: how relevant is the rat? Nat Rev Neurosci 3:574-579; Bordia, T., Campos, C., Huang, L. Z. & Quik, M., “Continuous And Intermittent Nicotine Treatment Reduces L-3,4-Dihydroxyphenylalanine (L-Dopa)-Induced Dyskinesias In A Rat Model Of Parkinson's Disease,” J Pharmacol Exp Ther 327: 239-47 (2008)). Rats were scored on a scale from 0 to 4 for each of these three AIM subtypes as follows: 1=occasional; 2=frequent; 3=continuous but interrupted by sensory distraction; and 4=continuous, severe, not interrupted by sensory distraction. Animals were evaluated for AIMs for an initial 20 min baseline period, as well as for 3 h following L-dopa injection by a blinded rater. Assessment of the different subtypes of AIMs was done over 20 min sessions, thus yielding a total of 9 sessions of testing per animals. The maximum possible score for each animal was thus 108 (maximum score per session=12; number of sessions over 3 h=9). […]

Parkinsonian rats = experiment: Limb use asymmetry (cylinder) test of motor function in Parkinsonian rats; format: in vivo, rat
Experimental: Because drugs that reduce AIMs may worsen Parkinsonism, the effect of Compound A (PD1) was also tested on motor function in Parkinsonian rats (see FIG. 3) using the limb use asymmetry or cylinder test. The cylinder test was used as an index of behavioral function after unilateral nigrostriatal damage, with explorative activity analyzed as previously described. Animals were placed in a transparent cylinder (20 cm diameter×30 cm height) or in a transparent cage and evaluated over a 5 min period. A mirror was placed behind the cylinder/cage to allow the raters to view forelimb movements when the rat was turned away from the rater. Wall exploration was expressed in terms of the percentage of use of the impaired forelimb (contralateral to the lesion) compared to the total number of limb use movements. Two raters, one blinded to the treatment status of the rats, performed the ratings. Correlation analyses yielded a high inter-rater reliability (R=0.99). […] The rat is placed in a transparent cylinder, which results in vertical exploration and the percentage of contact of the unimpaired and impaired forelimb against the cylinder evaluated (Cenci, M. A. and M. Lundblad, “Post-Versus Presynaptic Plasticity In L-Dopa-lnduced Dyskinesia,”. J Neurochem, 99: 381-392 (2006); Tillerson, J. L. et al., “Forced Limb-Use Effects On The Behavioral And Neurochemical Effects Of 6-Hydroxydopamine,” J Neurosci 21, 4427-35 (2001); and Meredith, G. E. & U. J. Kang, “Behavioral Models Of Parkinson's Disease In Rodents: A New Look At An Old Problem,” Mov Disord, 21: 1595-606 (2006).

rats = experiment: Safety studies in rats; format: in vivo, rat
rodents = experiment: Toxicological studies, rodents; format: in vivo
dogs = experiment: Toxicological studies, dogs; format: in vivo
primates = experiment: Toxicological studies, primates; format: in vivo
[3] = 0.1 or 0.3 mg/kg/d via subcutaneous minipump

SMILES	reduction of L-dopa-induced dyskinetic-like movements [1] [%]	reduction of L-dopa-induced dyskinetic-like movements (Parkinsonian rodents; Parkinsonian rodents) [%]	L-dopa-induced AIMs (Parkinsonian rodents; rats, given continuously via osmotic minipump)	total AIMs ([2]; 0.1 mg/kg/day, second and third assessments)	total AIMs ([2]; 0.3 mg/kg/day, fourth assessment)	L-dopa-induced AIMs, total or some subset (axial, oral and/or forelimb) ([2]; 0.1 and 0.3 mg/kg/day, across multiple assessments, P<0.05 vs control (FIG. 2))	reduction in oral versus axial AIMs [2, 3]	reduction of total L-dopa-induced AIMs [2, 3] [%]	total AIMs ([2]; first and fifth AIMs assessments)	adverse effects (body weight, body temperature, grooming, urination, defecation, secretion) ([2]; minipump treatment in the AIMs study)	Parkinsonism / motor function, trend (Parkinsonian rats; lesioned rats, either dose tested)	baseline motor function (Parkinsonian rats; off L-dopa, either dose tested, across the experiment)	enhanced limb use with L-dopa treatment (Parkinsonian rats; on L-dopa, either dose tested, across the experiment)	parkinsonism, asymmetric forelimb or cylinder test (FIG. 3) (Parkinsonian rats; two doses, Off or On L-dopa, several occasions)	detrimental effects (rats; acute free base oral doses up to 30 mg/kg)	behavioral sensitization (rats; rats)	locomotor activity (rats; rats)	incidence of peripheral side effects (rodents)	incidence of peripheral side effects (dogs)	incidence of peripheral side effects (primates)
CN1CCCC1c1cccnc1 (centres unmarked) [nicotine]	~50	~50	most effectively reduced L-dopa-induced AIMs	–	–	–	–	–	–	–	–	–	–	–	–	–	–	–	–	–
C(=C\[C@H]1CCNC1)/c1cncnc1 [Compound A, (R)-5-((E)-2-pyrrolidin-3-ylvinyl)pyrimidine]	–	–	–	significant decline in total AIMs	significant decline in total AIMs	reduce L-dopa-induced AIMs; also recorded: significant reduction	more pronounced reduction in oral than axial AIMs	~25	trends for declines in total AIMs	no detectable adverse effects	small trend for improvement; also recorded: trend for improving Parkinsonism	does not worsen baseline motor function	nor does it worsen the enhanced limb use	do not worsen parkinsonism	not associated with any significant detrimental effects	no behavioral sensitization	did not increase locomotor activity	low incidence of peripheral side effects	low incidence of peripheral side effects	low incidence of peripheral side effects
